According to PubChem BioAssay AID330 (DTP/NCI, 2004):
Where “and” joins values, the source holds several entries; their conditions need not be identical. Equal entries are not always repeated. Inconclusive results and toxic doses are left out.

System: P388 leukemia ip, CD2F1 mice, survival T/C
Assay: NCI In Vivo Anticancer Drug Screen. Data for tumor model P388 Leukemia (intraperitoneal) in CD2F1 (CDF1) mice
Conditions: endpoint: median survival time, higher = longer survival
Method in brief: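 Mice carrying the transplanted tumor received test compound or vehicle. Survival was recorded in each group, and the value is the treated-group measurement divided by that of the vehicle-treated control group.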

[1] = dose: 100.0 mg/kg/injection, schedule: Q04DX002 (ip), vehicle: saline with Tween-80
[2] = dose: 100.0 mg/kg/injection, schedule: Q04DX002 (ip), vehicle: saline
[3] = dose: 50.0 mg/kg/injection, schedule: Q01DX009 (ip), vehicle: saline
[4] = dose: 100.0 mg/kg/injection, schedule: Q01DX009 (ip), vehicle: saline
[5] = dose: 200.0 mg/kg/injection, schedule: Q01DX009 (ip), vehicle: saline
[6] = dose: 25.0 mg/kg/injection, schedule: Q01DX009 (ip), vehicle: saline
[7] = dose: 100.0 mg/kg/injection, schedule: Q01DX009 (ip), vehicle: saline with Tween-80
[8] = dose: 200.0 mg/kg/injection, schedule: Q01DX009 (ip), vehicle: saline with Tween-80
[9] = dose: 25.0 mg/kg/injection, schedule: Q01DX009 (ip), vehicle: saline with Tween-80
[10] = dose: 60.0 mg/kg/injection, schedule: Q01DX005 (ip), vehicle: saline
[11] = dose: 50.0 mg/kg/injection, schedule: Q01DX005 (ip), vehicle: saline with Tween-80
[12] = dose: 100.0 mg/kg/injection, schedule: Q01DX005 (ip), vehicle: saline with Tween-80
[13] = dose: 12.5 mg/kg/injection, schedule: Q01DX009 (ip), vehicle: saline

With `O=C1C=C(NCCC2CCCN3CCCCC23)C(=O)c2ccccc21` (centres undefined) the T/C (dose: 12.5 mg/kg/injection, schedule: Q01DX001 (ip), vehicle: Klucel (hydroxypropylcellulose) (HPC)) was 98 % of control, the T/C (dose: 25.0 mg/kg/injection, schedule: Q01DX001 (ip), vehicle: Klucel (hydroxypropylcellulose) (HPC)) was 95 % of control and the T/C (dose: 50.0 mg/kg/injection, schedule: Q01DX001 (ip), vehicle: Klucel (hydroxypropylcellulose) (HPC)) was 100 % of control.

For `CCOC(=O)C1C(=O)N2C(=O)C(NC(C)=O)=C(O)C2C1c1ccc(C)cc1` (centres undefined), the T/C [1] was 100 % of control, the T/C (dose: 200.0 mg/kg/injection, schedule: Q04DX002 (ip), vehicle: saline with Tween-80) was 100 % of control and the T/C (dose: 400.0 mg/kg/injection, schedule: Q04DX002 (ip), vehicle: saline with Tween-80) was 104 % of control.

`COc1ccc2nc3cc(Cl)ccc3c(Nc3ccccc3NC(C)=O)c2n1` was tested, and the T/C (dose: 12.5 mg/kg/injection, schedule: Q01DX009 (ip), vehicle: water) was 116 % of control, the T/C (dose: 25.0 mg/kg/injection, schedule: Q01DX009 (ip), vehicle: water) was 116 % of control and the T/C (dose: 50.0 mg/kg/injection, schedule: Q01DX009 (ip), vehicle: water) was 119 % of control. The T/C (dose: 100.0 mg/kg/injection, schedule: Q01DX009 (ip), vehicle: water) was 114 % of control and the T/C (dose: 200.0 mg/kg/injection, schedule: Q01DX009 (ip), vehicle: water) was 115 % of control.

For `CCCCCCCCOc1ccc(/C=C/C(C)=N/NC(N)=NC)cc1OC`, the T/C (dose: 7.5 mg/kg/injection, schedule: Q01DX005 (ip), vehicle: saline with Tween-80) was 111 % of control, the T/C (dose: 15.0 mg/kg/injection, schedule: Q01DX005 (ip), vehicle: saline with Tween-80) was 95 % of control and the T/C (dose: 30.0 mg/kg/injection, schedule: Q01DX005 (ip), vehicle: saline with Tween-80) was 102 % of control.

With `Cc1ccc(S(=O)(=O)CC2CCc3ccccc3C2=O)cc1` (centres undefined) the T/C [2] was 107 % of control, the T/C (dose: 200.0 mg/kg/injection, schedule: Q04DX002 (ip), vehicle: saline) was 101 % of control and the T/C (dose: 400.0 mg/kg/injection, schedule: Q04DX002 (ip), vehicle: saline) was 104 % of control.

For `Clc1cc(Cl)cc(N=Cc2cccs2)c1`, the T/C [3] was 100 % of control, the T/C [4] was 100 % of control and the T/C [5] was 98 % of control.

In the case of `O=C(O)O`, the T/C [6] is reported as 102 % of control, the T/C [3] is reported as 94 % of control and 93 % of control and the T/C [7] is reported as 100 % of control. For the same compound, the T/C [4] was 99 % of control and 95 % of control, the T/C [8] was 95 % of control and the T/C [5] was 98 % of control and 102 % of control. The T/C (dose: 200.0 mg/kg/injection, schedule: Q04DX003 (ip), vehicle: saline sonified) was 100 % of control, the T/C (dose: 0.25 % in 0.5 ml injection vol, schedule: Q01DX009 (ip), vehicle: water) was 98 % of control and the T/C (dose: 400.0 mg/kg/injection, schedule: Q04DX003 (ip), vehicle: saline sonified) was 100 % of control. The T/C (dose: 0.5 % in 0.5 ml injection vol, schedule: Q01DX009 (ip), vehicle: water) was 100 % of control, the T/C (dose: 1.0 % in 0.5 ml injection vol, schedule: Q01DX009 (ip), vehicle: water) was 102 % of control and the T/C (dose: 4.0 % in 0.5 ml injection vol, schedule: Q01DX009 (ip), vehicle: water) was 100 % of control and 102 % of control. For the same compound, the T/C (dose: 8.0 % in 0.5 ml injection vol, schedule: Q01DX009 (ip), vehicle: water) was 99 % of control and 95 % of control.

With `CC1(C)C2CC=C(C[P+](c3ccccc3)(c3ccccc3)c3ccccc3)C1C2` (centres undefined) the T/C (dose: 1.25 mg/kg/injection, schedule: Q01DX009 (ip), vehicle: saline with Tween-80) was 119 % of control and the T/C (dose: 2.5 mg/kg/injection, schedule: Q01DX009 (ip), vehicle: saline with Tween-80) was 119 % of control.

For `NC(=O)c1nc2c(Nc3ccccc3Br)nc(N)nc2nc1N`, the T/C (dose: 100.0 mg/kg/injection, schedule: Q01DX001 (ip), vehicle: saline) was 104 % of control, the T/C (dose: 200.0 mg/kg/injection, schedule: Q01DX001 (ip), vehicle: saline) was 101 % of control and the T/C (dose: 400.0 mg/kg/injection, schedule: Q01DX001 (ip), vehicle: saline) was 97 % of control.

`CCCCCn1cnc2c(=S)nc[nH]c21` was tested, and the T/C (dose: 100.0 mg/kg/injection, schedule: Q04DX003 (ip), vehicle: saline with Tween-80) was 104 % of control, the T/C (dose: 200.0 mg/kg/injection, schedule: Q04DX003 (ip), vehicle: saline with Tween-80) was 100 % of control and the T/C (dose: 400.0 mg/kg/injection, schedule: Q04DX003 (ip), vehicle: saline with Tween-80) was 90 % of control.

`C/C(O)=C(/N=Nc1ccc(-c2nc3ccc(C)c(S(=O)(=O)O)c3s2)cc1)C(=O)Nc1ccccc1` was tested, and the T/C (dose: 6.25 mg/kg/injection, schedule: Q01DX009 (ip), vehicle: saline with Tween-80) was 104 % of control, the T/C (dose: 12.5 mg/kg/injection, schedule: Q01DX009 (ip), vehicle: saline with Tween-80) was 95 % of control and the T/C [9] was 96 % of control.

`N#CCCP(=O)(O)CCC#N` was tested, and the T/C [10] was 100 % of control, the T/C (dose: 120.0 mg/kg/injection, schedule: Q01DX005 (ip), vehicle: saline) was 100 % of control and the T/C (dose: 240.0 mg/kg/injection, schedule: Q01DX005 (ip), vehicle: saline) was 90 % of control.

`CN(C)CCCN=c1c2ccccc2n(C)c2[nH]c(=O)n(C)c(=O)c12` was tested, and the T/C (dose: 7.5 mg/kg/injection, schedule: Q01DX005 (ip), vehicle: saline) was 107 % of control, the T/C (dose: 15.0 mg/kg/injection, schedule: Q01DX005 (ip), vehicle: saline) was 124 % of control and the T/C [10] was 123 % of control.

In the case of `N#CC1=CNc2ccccc2N=C1N`, the T/C [11] is reported as 104 % of control and the T/C [12] is reported as 99 % of control.

For `CCC(C)C(NC(=O)CCl)C(=O)O` (centres undefined), the T/C [3] was 99 % of control, the T/C [4] was 96 % of control and the T/C [5] was 101 % of control.

With `COc1cccc2c(NCCCCCCCCNc3c4ccccc4nc4c(OC)cccc34)c3ccccc3nc12` the T/C (dose: 1.25 mg/kg/injection, schedule: Q01DX009 (ip), vehicle: lactic acid) was 169 % of control, the T/C (dose: 2.5 mg/kg/injection, schedule: Q01DX009 (ip), vehicle: lactic acid) was 189 % of control and the T/C (dose: 5.0 mg/kg/injection, schedule: Q01DX009 (ip), vehicle: other) was 154 % of control.

For `C(=Nc1ccc(N=Cc2ccccc2P(c2ccccc2)c2ccccc2)cc1)c1ccccc1P(c1ccccc1)c1ccccc1`, the T/C (dose: 50.0 mg/kg/injection, schedule: Q01DX009 (ip), vehicle: Klucel (hydroxypropylcellulose) (HPC)) was 99 % of control, the T/C (dose: 100.0 mg/kg/injection, schedule: Q01DX009 (ip), vehicle: Klucel (hydroxypropylcellulose) (HPC)) was 99 % of control and the T/C (dose: 200.0 mg/kg/injection, schedule: Q01DX009 (ip), vehicle: Klucel (hydroxypropylcellulose) (HPC)) was 99 % of control.

For `Cc1ccc(C(=O)CCN(C)C)cc1`, the T/C (dose: 6.25 mg/kg/injection, schedule: Q01DX009 (ip), vehicle: saline) was 105 % of control, the T/C [13] was 100 % of control and the T/C [6] was 96 % of control. The T/C [3] was 98 % of control and 106 % of control and the T/C [4] was 107 % of control.

For `CC1(C)CSC(=S)SC1`, the T/C (dose: 25.0 mg/kg/injection, schedule: Q04DX002 (ip), vehicle: saline) was 100 % of control, the T/C (dose: 50.0 mg/kg/injection, schedule: Q04DX002 (ip), vehicle: saline) was 97 % of control and the T/C [1] was 110 % of control. The T/C [2] was 103 % of control.

For `COC(=S)NC(=O)c1ccc(Cl)c(Cl)c1`, the T/C [9] was 108 % of control, the T/C (dose: 50.0 mg/kg/injection, schedule: Q01DX009 (ip), vehicle: saline with Tween-80) was 107 % of control and the T/C [7] was 99 % of control. For the same compound, the T/C [8] was 110 % of control.

For `CNCCNc1ccc(C)c2sc3ccc(O)cc3c(=O)c12`, the T/C (dose: 25.0 mg/kg/injection, schedule: Q01DX009 (ip), vehicle: Klucel (hydroxypropylcellulose) (HPC)) was 95 % of control.

In the case of `COc1c(C)n(CCCCCCn2ccc(=O)c(OC)c2C)ccc1=O`, the T/C (dose: 50.0 mg/kg/injection, schedule: Q01DX005 (ip), vehicle: Klucel (hydroxypropylcellulose) (HPC)) is reported as 92 % of control, the T/C (dose: 100.0 mg/kg/injection, schedule: Q01DX005 (ip), vehicle: Klucel (hydroxypropylcellulose) (HPC)) is reported as 108 % of control and the T/C (dose: 200.0 mg/kg/injection, schedule: Q01DX005 (ip), vehicle: Klucel (hydroxypropylcellulose) (HPC)) is reported as 93 % of control.

With `COc1ccc2c(c1)OC(C)(C)C(c1ccccc1)=C2c1ccc2c(c1)NC(=O)CO2` the T/C [11] was 99 % of control, the T/C [12] was 90 % of control and the T/C (dose: 200.0 mg/kg/injection, schedule: Q01DX005 (ip), vehicle: saline with Tween-80) was 94 % of control.

With `FC(F)(F)c1cccc(C2CNCCO2)c1` (centres undefined) the T/C [13] was 100 % of control, the T/C [6] was 105 % of control and the T/C [3] was 100 % of control.
